Earlier results on three compounds are cited in patent publication US9169224B2, “Piperazinyl and piperidinyl ureas as modulators of fatty acid amide hydrolase” (Janssen Pharmaceutica NV, priority 2004, dated 2015).

One data set has as its system CREAE mice. The following applies: Baker 2001; cited from earlier work.
The next data set concerns the target FAAH (Homo sapiens (Human), UniProt O00519). Particulars: WO 04/033652; cited from earlier work.
Data set [1] deals with rats. The following applies: WO 04/033652; cited from earlier work.
The test system of data set [2] is rats. The following applies: rat, Kathuria 2003; cited from earlier work.
In data set [3] the test system is rats. The following applies: Kathuria 2003; cited from earlier work.

Chain of FAAH (O00519 whole entry): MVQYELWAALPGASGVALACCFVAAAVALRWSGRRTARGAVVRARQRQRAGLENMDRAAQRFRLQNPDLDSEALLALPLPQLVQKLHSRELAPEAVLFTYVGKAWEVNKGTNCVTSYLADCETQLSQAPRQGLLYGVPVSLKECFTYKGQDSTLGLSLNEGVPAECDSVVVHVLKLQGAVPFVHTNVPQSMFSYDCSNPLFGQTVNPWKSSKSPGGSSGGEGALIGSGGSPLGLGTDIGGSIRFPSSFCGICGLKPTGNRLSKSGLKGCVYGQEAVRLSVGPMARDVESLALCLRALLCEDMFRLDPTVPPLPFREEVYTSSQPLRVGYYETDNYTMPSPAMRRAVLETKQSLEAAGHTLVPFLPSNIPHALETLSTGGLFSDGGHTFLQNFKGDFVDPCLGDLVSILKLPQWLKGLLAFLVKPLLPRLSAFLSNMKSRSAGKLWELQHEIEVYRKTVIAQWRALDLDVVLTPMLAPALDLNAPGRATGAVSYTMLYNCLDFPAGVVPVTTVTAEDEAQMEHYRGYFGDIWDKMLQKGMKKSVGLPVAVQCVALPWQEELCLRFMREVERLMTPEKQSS

Turning to `CCCCCCCCCCCCCCCCS(=O)(=O)F` [AM374], the spasticity result with CREAE mice is recorded as “significantly reduce spasticity”.

For `O=C(CCCCCCc1ccccc1)c1ncc(-c2ccccn2)o1` [OL-135], the “inhibition of FAAH” value at FAAH is reported as “potent inhibitor of FAAH”. Further, the analgesic activity entry in the data set with rats [1] is given as “analgesic activity”.

Take `NC(=O)c1cccc(-c2cccc(OC(=O)NC3CCCCC3)c2)c1` [URB-597]: the analgesic efficacy entry with rats [2] is given as “analgesic efficacy”. For the same compound, the “efficacy in anxiety model” value in the data set with rats [3] was “efficacy”.
